Legend:
[1] = test system: d(T2G8) (DNA, G4) GGGGTTGGGG; assay: ITC; settings: K+ (100 mM KCl, 30 mM potassium phosphate); pH 7.0, 25 °C; two-sites model; site 1 of 2
[2] = test system: d(T2G8) (DNA, G4) GGGGTTGGGG; assay: SYBR Green fluorescence melting; settings: K+ (100 mM KCl, 30 mM potassium phosphate), 5 µM quadruplex, 1× SYBR Green, ligand concentration not stated
[3] = test system: d(T2G8) (DNA, G4) GGGGTTGGGG; assay: ESI-MS, relative binding affinity; settings: 50 mM ammonium acetate; residual K+; 10 nM quadruplex and ligand, 10% methanol; intensity-derived index, not a constant
[4] = test system: d(T2G8) (DNA, G4) GGGGTTGGGG; assay: UV-Vis titration (soret shift 424–434 nm, 38.2% hypochromicity); settings: K+ (100 mM KCl, 30 mM potassium phosphate); 5 µM TMPyP4, 25 °C

K1 [1] | Tm ([2]; Tm 43 to 36 °C, derived from two Tm) | IRa [3] | binding [4] | Tm ([2]; Tm 43 to 49 °C) | SMILES
0.0597 (±0.01) × 10^8 | -7 °C | 0.45 |  |  | COc1cc2c(cc1OCCCC(=O)Nc1ccc3ccc4cccc5ccc1c3c45)N=C[C@@H]1CCCN1C2=O
 |  | 0.18 | yes |  | C[n+]1ccc(-c2c3nc(c(-c4cc[n+](C)cc4)c4ccc([nH]4)c(-c4cc[n+](C)cc4)c4nc(c(-c5cc[n+](C)cc5)c5ccc2[nH]5)C=C4)C=C3)cc1
0.0875 (±0.03) × 10^8 |  | 0.67 |  | ~ 6 °C | COc1cc2c(cc1OCCCCCOc1cc3c(cc1OC)C(=O)N1CCC[C@H]1C(=O)N3)N=C[C@@H]1CCCN1C2=O

From PMC3338766 (2012)
